Laboratory results reported in ChEMBL document CHEMBL3994677, “Discovery of GSK2193874: An Orally Active, Potent, and Selective Blocker of Transient Receptor Potential Vanilloid 4” (ACS Med Chem Lett, 2017).

Key:
[1] = target: T1, Transient receptor potential cation channel subfamily V member 4 (Homo sapiens, UniProt Q9HBA0); assay: Antagonist activity at human TRPV4 expressed in HEK293 cells assessed as inhibition of GSK634775A-induced calcium influx preincubated for 10 mins followed by GSK634775A addition by […] dye based FLIPR assay; assay type: cell-based
T1 sequence (Q9HBA0 whole entry): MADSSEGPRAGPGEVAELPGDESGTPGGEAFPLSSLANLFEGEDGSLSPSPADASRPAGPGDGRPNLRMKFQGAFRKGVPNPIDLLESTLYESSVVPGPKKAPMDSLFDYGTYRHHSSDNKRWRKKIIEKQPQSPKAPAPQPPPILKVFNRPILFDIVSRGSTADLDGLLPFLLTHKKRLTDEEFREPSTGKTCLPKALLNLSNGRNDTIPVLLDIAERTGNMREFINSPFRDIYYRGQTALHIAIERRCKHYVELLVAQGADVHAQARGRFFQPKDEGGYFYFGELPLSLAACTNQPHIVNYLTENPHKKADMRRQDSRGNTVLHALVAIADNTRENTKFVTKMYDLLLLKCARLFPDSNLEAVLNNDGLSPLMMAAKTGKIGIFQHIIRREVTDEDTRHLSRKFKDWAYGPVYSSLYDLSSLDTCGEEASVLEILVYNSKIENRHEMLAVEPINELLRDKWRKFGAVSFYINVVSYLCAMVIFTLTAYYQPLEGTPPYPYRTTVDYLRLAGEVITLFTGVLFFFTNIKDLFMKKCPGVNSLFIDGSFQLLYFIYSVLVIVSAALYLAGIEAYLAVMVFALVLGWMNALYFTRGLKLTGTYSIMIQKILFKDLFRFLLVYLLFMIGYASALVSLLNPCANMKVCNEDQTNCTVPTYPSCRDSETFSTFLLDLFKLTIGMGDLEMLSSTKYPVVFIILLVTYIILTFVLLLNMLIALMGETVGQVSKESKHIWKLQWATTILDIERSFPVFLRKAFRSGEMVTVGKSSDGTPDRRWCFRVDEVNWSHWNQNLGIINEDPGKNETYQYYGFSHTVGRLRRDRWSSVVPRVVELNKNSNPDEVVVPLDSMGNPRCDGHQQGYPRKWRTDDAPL

[2] = target: T2, Transient receptor potential cation channel subfamily V member 4 (Rattus norvegicus, UniProt Q9ERZ8); assay: Antagonist activity at rat TRPV4 expressed in HEK293 cells assessed as inhibition of GSK634775A-induced calcium influx preincubated for 10 mins followed by GSK634775A addition by […] dye based FLIPR assay; assay type: cell-based
T2 sequence (Q9ERZ8 whole entry): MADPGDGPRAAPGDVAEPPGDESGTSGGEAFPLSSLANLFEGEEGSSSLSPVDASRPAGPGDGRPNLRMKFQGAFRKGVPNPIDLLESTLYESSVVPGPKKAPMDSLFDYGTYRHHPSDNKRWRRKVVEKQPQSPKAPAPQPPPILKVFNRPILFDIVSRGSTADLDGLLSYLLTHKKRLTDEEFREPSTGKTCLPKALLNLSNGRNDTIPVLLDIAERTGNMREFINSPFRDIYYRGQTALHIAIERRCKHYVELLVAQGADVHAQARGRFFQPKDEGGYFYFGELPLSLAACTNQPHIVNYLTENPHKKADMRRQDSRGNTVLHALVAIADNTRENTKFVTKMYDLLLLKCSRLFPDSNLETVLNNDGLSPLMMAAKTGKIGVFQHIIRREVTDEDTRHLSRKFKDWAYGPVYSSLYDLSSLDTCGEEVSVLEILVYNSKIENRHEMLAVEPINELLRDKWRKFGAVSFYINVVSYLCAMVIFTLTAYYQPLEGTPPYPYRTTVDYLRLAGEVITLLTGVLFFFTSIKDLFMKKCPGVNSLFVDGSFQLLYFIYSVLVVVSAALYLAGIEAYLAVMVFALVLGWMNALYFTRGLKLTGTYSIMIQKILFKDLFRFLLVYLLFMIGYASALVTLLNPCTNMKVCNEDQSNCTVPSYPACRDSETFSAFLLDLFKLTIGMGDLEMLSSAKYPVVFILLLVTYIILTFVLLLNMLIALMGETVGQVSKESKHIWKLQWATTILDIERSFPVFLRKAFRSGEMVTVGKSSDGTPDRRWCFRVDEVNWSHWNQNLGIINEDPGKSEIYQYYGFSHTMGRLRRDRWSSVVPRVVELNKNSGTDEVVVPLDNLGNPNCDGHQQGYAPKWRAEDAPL

[3] = Clearance in Sprague-Dawley rat; assay type: ADME; settings: in vivo
Neuromedin-K receptor = Neuromedin-K receptor (Homo sapiens, UniProt P29371); assay: Inhibition of NK3 receptor (unknown origin) by FLIPR assay
Substance-K receptor = Substance-K receptor (Homo sapiens, UniProt P21452); assay: Inhibition of NK2 receptor (unknown origin) by FLIPR assay
Sequence of Substance-K receptor (P21452 whole entry): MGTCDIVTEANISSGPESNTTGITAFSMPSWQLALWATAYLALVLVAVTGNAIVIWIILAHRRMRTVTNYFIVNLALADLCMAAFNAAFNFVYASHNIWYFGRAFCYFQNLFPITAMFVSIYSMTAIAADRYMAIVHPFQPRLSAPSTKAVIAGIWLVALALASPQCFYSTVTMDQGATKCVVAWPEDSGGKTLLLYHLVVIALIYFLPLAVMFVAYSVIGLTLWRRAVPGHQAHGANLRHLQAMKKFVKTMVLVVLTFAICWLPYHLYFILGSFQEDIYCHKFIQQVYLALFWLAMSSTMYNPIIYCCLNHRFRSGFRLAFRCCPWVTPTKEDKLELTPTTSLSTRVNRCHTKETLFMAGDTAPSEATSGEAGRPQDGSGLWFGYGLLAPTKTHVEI

[4] = target: T1, Transient receptor potential cation channel subfamily V member 4
Description: Antagonist activity at human TRPV4 expressed in HEK293 cells assessed as inhibition of 4alpha-PDD-induced current at holding potential of -40 mV by Whole cell patch-clamp method

[5] = target: Transient receptor potential cation channel subfamily V member 4 (Mus musculus, UniProt Q9EPK8); assay: Antagonist activity at mouse TRPV4 expressed in HEK293 cells assessed as inhibition of 4alpha-PDD-induced current at holding potential of -40 mV by Whole cell patch-clamp method; assay type: cell-based
[6] = target: T2, Transient receptor potential cation channel subfamily V member 4; assay: Antagonist activity at rat TRPV4 expressed in HEK293 cells assessed as inhibition of 4alpha-PDD-induced current at holding potential of -40 mV by Whole cell patch-clamp method; assay type: cell-based
[7] = target: T3, Voltage-dependent L-type calcium channel subunit alpha-1C (Cavia porcellus, UniProt O35505); assay: Inhibition of Cav1.2 in guinea pig ventricular myocytes assessed as decrease in current amplitude at 2 Hz by patch clamp method; assay type: cell-based
T3 sequence (O35505 whole entry): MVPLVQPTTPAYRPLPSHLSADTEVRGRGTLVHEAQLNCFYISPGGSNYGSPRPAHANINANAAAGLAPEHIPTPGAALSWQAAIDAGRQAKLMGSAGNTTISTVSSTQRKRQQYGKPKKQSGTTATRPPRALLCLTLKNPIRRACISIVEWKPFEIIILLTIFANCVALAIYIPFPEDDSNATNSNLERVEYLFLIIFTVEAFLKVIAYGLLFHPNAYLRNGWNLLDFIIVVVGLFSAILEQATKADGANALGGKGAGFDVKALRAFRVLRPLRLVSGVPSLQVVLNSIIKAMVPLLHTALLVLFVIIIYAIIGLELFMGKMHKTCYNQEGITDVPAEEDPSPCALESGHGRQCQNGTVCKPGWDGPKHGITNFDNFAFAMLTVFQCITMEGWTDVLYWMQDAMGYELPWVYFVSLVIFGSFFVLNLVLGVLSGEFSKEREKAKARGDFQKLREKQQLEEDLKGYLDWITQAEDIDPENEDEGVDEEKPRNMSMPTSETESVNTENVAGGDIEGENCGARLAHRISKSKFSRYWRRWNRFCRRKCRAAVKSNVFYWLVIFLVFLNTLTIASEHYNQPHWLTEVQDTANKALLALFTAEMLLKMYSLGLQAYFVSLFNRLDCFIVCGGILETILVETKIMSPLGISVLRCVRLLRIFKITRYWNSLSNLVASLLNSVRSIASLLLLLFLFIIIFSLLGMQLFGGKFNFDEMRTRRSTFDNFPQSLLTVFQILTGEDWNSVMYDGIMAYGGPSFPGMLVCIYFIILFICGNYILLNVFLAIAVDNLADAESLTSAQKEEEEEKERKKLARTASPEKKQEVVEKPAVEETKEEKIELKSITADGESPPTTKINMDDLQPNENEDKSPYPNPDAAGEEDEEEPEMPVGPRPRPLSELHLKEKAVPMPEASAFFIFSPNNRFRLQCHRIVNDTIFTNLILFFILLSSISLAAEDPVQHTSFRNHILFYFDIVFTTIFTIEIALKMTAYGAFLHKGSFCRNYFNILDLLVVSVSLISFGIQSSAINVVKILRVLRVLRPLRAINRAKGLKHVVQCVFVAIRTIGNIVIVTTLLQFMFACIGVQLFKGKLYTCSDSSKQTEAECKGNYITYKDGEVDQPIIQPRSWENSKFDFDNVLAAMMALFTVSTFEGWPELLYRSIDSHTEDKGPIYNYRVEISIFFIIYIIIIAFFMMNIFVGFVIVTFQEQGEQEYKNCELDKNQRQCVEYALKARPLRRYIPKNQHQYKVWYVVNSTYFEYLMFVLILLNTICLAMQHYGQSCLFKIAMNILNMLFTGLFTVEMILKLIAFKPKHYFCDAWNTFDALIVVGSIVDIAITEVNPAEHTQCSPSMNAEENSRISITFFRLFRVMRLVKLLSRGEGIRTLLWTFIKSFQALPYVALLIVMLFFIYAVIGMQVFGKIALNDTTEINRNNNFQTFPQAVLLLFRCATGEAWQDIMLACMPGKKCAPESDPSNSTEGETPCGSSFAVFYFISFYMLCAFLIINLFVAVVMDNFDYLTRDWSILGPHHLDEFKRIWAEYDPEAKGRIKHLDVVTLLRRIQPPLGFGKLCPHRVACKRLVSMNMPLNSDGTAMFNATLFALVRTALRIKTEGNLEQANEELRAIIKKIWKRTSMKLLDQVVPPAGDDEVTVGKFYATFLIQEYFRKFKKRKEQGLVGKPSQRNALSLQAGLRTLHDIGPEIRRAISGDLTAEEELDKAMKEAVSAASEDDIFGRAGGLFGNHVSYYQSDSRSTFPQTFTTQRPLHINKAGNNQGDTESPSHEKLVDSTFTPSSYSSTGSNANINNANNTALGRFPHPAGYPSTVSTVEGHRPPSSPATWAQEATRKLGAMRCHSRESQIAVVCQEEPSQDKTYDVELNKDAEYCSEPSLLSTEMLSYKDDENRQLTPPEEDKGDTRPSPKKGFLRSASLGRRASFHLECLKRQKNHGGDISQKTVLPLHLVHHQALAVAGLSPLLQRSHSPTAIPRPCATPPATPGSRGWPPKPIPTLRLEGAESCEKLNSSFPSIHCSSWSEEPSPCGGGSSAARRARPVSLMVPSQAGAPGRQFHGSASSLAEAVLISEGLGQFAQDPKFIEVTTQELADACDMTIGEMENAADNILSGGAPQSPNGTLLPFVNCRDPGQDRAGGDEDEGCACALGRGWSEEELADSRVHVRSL

[8] = Clearance in iv dosed rat; assay type: ADME, organism-based; settings: in vivo
[9] = Half life in po dosed rat; assay type: ADME, organism-based; settings: in vivo
[10] = target: Nuclear receptor subfamily 1 group I member 2 (Homo sapiens, UniProt O75469); assay: Activation of PXR (unknown origin); assay type: ADME
Sequence of Nuclear receptor subfamily 1 group I member 2 (O75469 whole entry): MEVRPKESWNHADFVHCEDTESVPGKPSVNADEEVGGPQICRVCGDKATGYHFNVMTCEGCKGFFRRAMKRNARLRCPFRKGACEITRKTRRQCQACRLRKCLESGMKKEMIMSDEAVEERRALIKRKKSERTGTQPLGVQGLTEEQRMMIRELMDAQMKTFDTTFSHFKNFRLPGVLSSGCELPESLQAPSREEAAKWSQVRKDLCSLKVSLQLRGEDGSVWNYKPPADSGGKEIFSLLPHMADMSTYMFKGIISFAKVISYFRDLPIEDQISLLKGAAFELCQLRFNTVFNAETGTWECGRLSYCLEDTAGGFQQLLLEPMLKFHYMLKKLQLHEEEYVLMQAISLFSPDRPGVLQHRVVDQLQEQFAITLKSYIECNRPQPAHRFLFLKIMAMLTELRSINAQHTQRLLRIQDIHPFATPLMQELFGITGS

[11] = Half life in po dosed dog; assay type: ADME, organism-based, Canis lupus familiaris; settings: in vivo
[12] = target: Transient receptor potential cation channel subfamily A member 1 (Homo sapiens, UniProt O75762); assay: Inhibition of TRPA1 (unknown origin)
[13] = target: Short transient receptor potential channel 6 (Homo sapiens, UniProt Q9Y210); assay: Inhibition of TRPC6 (unknown origin)
[14] = target: Transient receptor potential cation channel subfamily M member 8 (Homo sapiens, UniProt Q7Z2W7); assay: Inhibition of TRPM8 (unknown origin)
[15] = target: Short transient receptor potential channel 3 (Homo sapiens, UniProt Q13507); assay: Inhibition of TRPC3 (unknown origin)
[16] = target: T3, Voltage-dependent L-type calcium channel subunit alpha-1C; assay: Inhibition of Cav1.2 in guinea pig ventricular myocytes assessed as decrease in current amplitude at 0.1 Hz by patch clamp method; assay type: cell-based
[17] = Clearance in iv dosed dog; assay type: ADME, organism-based, Canis lupus familiaris; settings: in vivo
[18] = Oral bioavailability in rat; assay type: ADME, organism-based; settings: in vivo
[19] = Oral bioavailability in dog; assay type: ADME, organism-based, Canis lupus familiaris; settings: in vivo
[20] = target: Transient receptor potential cation channel subfamily V member 1 (Homo sapiens, UniProt Q8NER1); assay: Inhibition of TRPV1 (unknown origin)

| SMILES | IC50 [1] [nM] | IC50 [2] [nM] | also measured |
| --- | --- | --- | --- |
| COc1ccc(-c2nc3ccccc3c(C(=O)N[C@@H](C)c3ccccc3)c2CN2CCC(N3CCCCC3)CC2)cc1 | 5010 | 320 | – |
| COc1ccc2c(C(=O)NC3(c4ccccc4)CC3)c(CN3CCC(N4CCCCC4)CC3)c(-c3cccc(C(F)(F)F)c3)nc2c1 | 250 | 2.5 | – |
| Cc1ccc(-c2nc3ccccc3c(C(=O)N[C@@H](C)c3ccccc3)c2CN2CCC(N3CCCCC3)CC2)cc1 | 1580 | 100 | – |
| C[C@H](NC(=O)c1c(CN2CCC(N3CCCCC3)CC2)c(-c2ccccc2)nc2ccccc12)c1ccccc1 | 2000 | 320 | clearance [3]: 52 mL/min/kg; IC50 (Neuromedin-K receptor): 8 nM; IC50 (Substance-K receptor): 100 nM |
| Cc1c(C(=O)Nc2cccc(C(F)(F)F)c2)cc(-c2ccccc2)n1CCCN1CCOCC1 | – | – | IC50 [4]: 48 nM; IC50 [5]: 17 nM; IC50 [6]: 133 nM |
| C[C@@H](NC(=O)c1c(CN2CCC(N3CCCCC3)CC2)c(-c2ccccc2)nc2ccccc12)c1ccccc1 | 2000 | 630 | – |
| C[C@H](NC(=O)c1c(CN2CCC(C3CCCCC3)CC2)c(-c2cccc(C(F)(F)F)c2)nc2ccccc12)c1ccccc1 | > 25000 | > 25000 | – |
| C[C@H](NC(=O)c1c(CN2CCC(N(C)C)CC2)c(-c2cccc(C(F)(F)F)c2)nc2ccccc12)c1ccccc1 | 2510 | 320 | – |

More lines, main results first:

| IC50 [1] [nM] | IC50 [2] [nM] | SMILES | also measured |
| --- | --- | --- | --- |
| 60 | 3.2 | O=C(N[C@H](c1ccccc1)C(F)(F)F)c1c(CN2CCC(N3CCCCC3)CC2)c(-c2cccc(C(F)(F)F)c2)nc2cc(Br)ccc12 | – |
| 40 | 2.5 | O=C(N[C@H](c1ccccc1)C(F)(F)F)c1c(CN2CCC(N3CCCCC3)CC2)c(-c2cccc(C(F)(F)F)c2)nc2ccccc12 | – |
| 50 | 4 | C[C@H](NC(=O)c1c(CN2CCC(N3CCOCC3)CC2)c(-c2cccc(C(F)(F)F)c2)nc2ccccc12)c1ccccc1 | – |
| 40 | 2 | O=C(NC1(c2ccccc2)CC1)c1c(CN2CCC(N3CCCCC3)CC2)c(-c2cccc(C(F)(F)F)c2)nc2cc(Br)ccc12 | IC30 [7]: 10500 nM; clearance [8]: 7.3 mL/min/kg; half-life [9]: 10 h; Activity ([10]; human): Not Active; half-life [11]: 31 h; IC50 [12]: > 25000 nM; IC50 [13]: > 25000 nM; IC50 [14]: > 25000 nM; IC50 [15]: > 25000 nM; IC30 [16]: 10500 nM; clearance [17]: 6.9 mL/min/kg; bioavailability [18]: 31%; bioavailability [19]: 53%; IC50 [20]: > 25000 nM |
| 160 | 6 | CC[C@H](NC(=O)c1c(CN2CCC(N3CCCCC3)CC2)c(-c2cccc(C(F)(F)F)c2)nc2ccccc12)c1ccccc1 | – |
| 60 | 2.5 | O=C(N[C@H](c1ccccc1)C(F)(F)F)c1c(CN2CCC(N3CCCCC3)CC2)c(-c2cccc(C(F)(F)F)c2)nc2ccc(Br)cc12 | – |
| 50 | 2.5 | O=C(NC1(c2ccccc2)CC1)c1c(CN2CCC(N3CCCCC3)CC2)c(-c2cccc(C(F)(F)F)c2)nc2ccccc12 | – |
| 10 | 3.2 | CCOc1ccc2c(C(=O)N[C@H](c3ccccc3)C(F)(F)F)c(CN3CCC(N4CCCCC4)CC3)c(-c3cccc(C(F)(F)F)c3)nc2c1 | IC30 [7]: 12000 nM; EC50 [10]: 1300 nM; IC30 [16]: 10000 nM |
